In paper PMC3617406 (Molecular pharmaceutics, 2013):
Entries after “also recorded” stand apart in the source; their conditions may differ. Like-named read-outs stand apart in the source and are kept apart here.

Assays:
[1] = biological target: T1, human NTCP (Homo sapiens, UniProt Q14973); experiment: Taurocholate uptake kinetics into NTCP-HEK293 cells; conditions: Figure S1
T1 sequence (Q14973 1-349): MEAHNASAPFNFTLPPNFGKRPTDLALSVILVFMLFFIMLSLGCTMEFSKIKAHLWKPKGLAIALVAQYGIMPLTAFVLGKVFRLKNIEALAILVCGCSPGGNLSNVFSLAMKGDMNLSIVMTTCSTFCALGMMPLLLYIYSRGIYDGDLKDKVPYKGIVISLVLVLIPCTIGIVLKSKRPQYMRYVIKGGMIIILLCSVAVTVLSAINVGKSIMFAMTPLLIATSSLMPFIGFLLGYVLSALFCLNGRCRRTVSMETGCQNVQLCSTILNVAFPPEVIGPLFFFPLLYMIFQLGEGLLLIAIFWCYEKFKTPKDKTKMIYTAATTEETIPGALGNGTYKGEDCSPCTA

[2] = biological target: T1, human NTCP; assay type: cell-based; conditions: for NTCP inhibitor or non-inhibitor: inhibitor = Ki less than 300 μM; for potency estimated from few doses: read-out: Estimated Ki for NTCP
[3] = biological target: T2, human ASBT (Homo sapiens, UniProt Q12908); assay type: cell-based; conditions: for potency estimated from few doses: read-out: Estimated Ki for ASBT; for taurocholate uptake into ASBT-MDCK cells, percent of control: single drug concentration, same as in NTCP screening (typically 100 μM); for ASBT inhibitor or non-inhibitor: inhibitor = Ki below 300 μM
T2 sequence (Q12908 1-348): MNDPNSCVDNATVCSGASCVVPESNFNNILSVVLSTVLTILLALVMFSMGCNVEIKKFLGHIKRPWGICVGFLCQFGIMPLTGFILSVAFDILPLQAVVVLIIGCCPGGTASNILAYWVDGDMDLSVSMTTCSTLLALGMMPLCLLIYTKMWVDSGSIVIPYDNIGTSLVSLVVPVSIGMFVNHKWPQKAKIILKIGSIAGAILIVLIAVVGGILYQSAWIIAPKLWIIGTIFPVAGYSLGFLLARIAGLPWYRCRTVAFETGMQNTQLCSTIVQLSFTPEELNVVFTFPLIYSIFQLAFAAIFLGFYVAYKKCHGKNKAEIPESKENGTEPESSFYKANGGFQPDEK

[4] = biological target: T1, human NTCP; assay type: cell-based
[5] = Cytotoxicity study; conditions: dog, ASBT-MDCK cells

Compound | NTCP inhibitor or non-inhibitor [2] | potency estimated from few doses [2] [µM] | potency estimated from few doses [3] [µM] | Ki [4] [µM] | also measured
C[C@H](CCC(=O)NCCS(=O)(=O)O)[C@H]1CC[C@H]2[C@@H]3[C@H](O)C[C@@H]4C[C@H](O)CC[C@]4(C)[C@H]3C[C@H](O)[C@]12C [taurocholate, Taurocholate] |  |  |  |  | Kt (taurocholate Michaelis-Menten constant) [1]: 22.7(±3.4) μM; Vmax [1]: 1.80(±0.03) pmol/sec/cm^2; passive permeability Pp [1]: 1.27(±0.03)x10^−6 cm/sec
CC(C(=O)O)c1cccc(C(=O)c2ccccc2)c1 (centres unmarked) [Ketoprofen] |  | 361 ± 178 | 480 ± 609 | 321 ± 57 | 
COc1ccc([C@@H]2Sc3ccccc3N(CCN(C)C)C(=O)[C@@H]2OC(C)=O)cc1 [Diltiazem] |  | 460 ± 232 | 237 ± 21 | 599 ± 212 | 
CCOc1nc2cccc(C(=O)O)c2n1Cc1ccc(-c2ccccc2-c2nnn[nH]2)cc1 [Candesartan] | inhibited NTCP | 145 ± 44 | 67.6 ± 30 | 233 ± 37 | 
CCCCC(=O)N(Cc1ccc(-c2ccccc2-c2nnn[nH]2)cc1)[C@H](C(=O)O)C(C)C [Valsartan] | did not inhibit NTCP | > 100 | 1260 |  | viability at 10 min, 100 μM [5]: 77.9%
CCCC1O[C@@H]2C[C@H]3[C@@H]4CCC5=CC(=O)C=C[C@]5(C)[C@H]4[C@@H](O)C[C@]3(C)[C@]2(C(=O)CO)O1 (some centres unmarked) [Budesonide] | inhibited NTCP | 264 ± 94 | 62.6 ± 15 | 220 ± 45 | taurocholate uptake into ASBT-MDCK cells, percent of control [3]: below 50%
CC(C)[C@H]1CC[C@H](C(=O)N[C@H](Cc2ccccc2)C(=O)O)CC1 [Nateglinide] | inhibited NTCP | 111 ± 7 | 77 ± 16 | 200 ± 32 | 
COC(=O)[C@H]1[C@H]2C[C@@H]3c4[nH]c5cc(OC)ccc5c4CCN3C[C@H]2C[C@@H](OC(=O)c2cc(OC)c(OC)c(OC)c2)[C@@H]1OC [Reserpine] | inhibited human NTCP | 89.1 ± 65 | 21.6 ± 2.9 |  | NTCP inhibitor or non-inhibitor ([2]; listed as reserpine): inhibited NTCP
COC(=O)[C@@H]1[C@H]2C[C@H]3c4[nH]c5ccccc5c4CCN3C[C@@H]2CC[C@@H]1O [Yohimbine] |  | > 100 | 377 ± 442 |  | 
COc1ccc(CC(C)NCC(O)c2ccc(O)c(NC=O)c2)cc1 (centres unmarked) [Formoterol] |  | > 100 | 175 ± 96 |  | 
C[C@]12C=CC(=O)C=C1CC[C@@H]1[C@@H]2[C@@H](O)C[C@@]2(C)[C@H]1CC[C@]2(O)C(=O)CO [Prednisolone] |  | 335 ± 177 | 89.2 ± 32 |  | 
C[C@H]1C[C@@H]2[C@H]([C@@H](O)C[C@@]3(C)[C@H]2CC[C@]3(O)C(=O)CO)[C@@]2(C)C=CC(=O)C=C12 [Methylprednisolone] | NTCP inhibitors; also recorded: inhibited NTCP but not ASBT | 255 ± 53 | > 100 | 238 ± 33 | fold more potent NTCP inhibition than ASBT inhibition ([2]; Ki values of Table 4 and 5): ≥ 10 fold; ASBT inhibitor or non-inhibitor [3]: inhibited NTCP but not ASBT

Now from value to molecule, other results behind:

NTCP inhibitor or non-inhibitor [2] | potency estimated from few doses [2] [µM] | potency estimated from few doses [3] [µM] | Ki [4] [µM] | Compound | also measured
NTCP inhibitors | 280 ± 37 | 27.4 ± 4.6 | 209 ± 27 | CN1CCN(CCCN2c3ccccc3Sc3ccc(Cl)cc32)CC1 [Prochlorperazine] | taurocholate uptake into ASBT-MDCK cells, percent of control [3]: below 50%
inhibited NTCP | 211 ± 60 | 121 ± 33 | 129 ± 20 | CC(C)OC(=O)C(C)(C)Oc1ccc(C(=O)c2ccc(Cl)cc2)cc1 [Fenofibrate] | viability at 10 min, 100 μM [5]: 79.2%; taurocholate uptake into ASBT-MDCK cells, percent of control [3]: 64.7%
NTCP inhibitors | 98.8 ± 12 | 61.9 ± 27 | 202 | CC(=O)N1CCN(c2ccc(OCC3COC(Cn4ccnc4)(c4ccc(Cl)cc4Cl)O3)cc2)CC1 (centres unmarked) [Ketoconazole] | ASBT inhibitor or non-inhibitor [3]: ASBT inhibitors; taurocholate uptake into ASBT-MDCK cells, percent of control [3]: below 50%
 | 435 ± 114 | 425 ± 155 | 544 ± 217 | CCCN(CCC)S(=O)(=O)c1ccc(C(=O)O)cc1 [Probenecid] | 
NTCP inhibitors | 100 ± 8 | 30.8 ± 3.6 | 126 ± 20 | CCc1nn(CCCN2CCN(c3cccc(Cl)c3)CC2)c(=O)n1CCOc1ccccc1 [Nefazodone] | taurocholate uptake into ASBT-MDCK cells, percent of control [3]: below 50%
inhibited NTCP | 41.2 ± 7.1 | 20.9 ± 7.3 | 35.3 ± 5.4 | COc1cc2nc(N3CCN(C(=O)C4COc5ccccc5O4)CC3)nc(N)c2cc1OC (centres unmarked) [Doxazosin] | 
NTCP inhibitors | 141 ± 14 | 31.3 ± 7.7 | 173 ± 24 | COc1ccc2c(c1)c(CC(=O)O)c(C)n2C(=O)c1ccc(Cl)cc1 [Indomethacin] | taurocholate uptake into ASBT-MDCK cells, percent of control [3]: below 50%
 | > 100 | > 100 |  | CN1CCN(CC/C=C2/c3ccccc3Sc3ccc(S(=O)(=O)N(C)C)cc32)CC1 [Thiothixene] | 
 | 673 ± 130 | 177 ± 32 |  | Cc1ccc(NC(=O)c2ccc(CN3CCN(C)CC3)cc2)cc1Nc1nccc(-c2cccnc2)n1 [Imatinib] | 
 | > 100 | 85.8 ± 2.3 |  | CCCCOc1cc(C(=O)NCCN(CC)CC)c2ccccc2n1 [Dibucaine] | fold more potent ASBT inhibition than NTCP inhibition ([3]; Ki values of Table 4 and 5): ≥ 10 fold
